Data from patent publication US11254661B2, “Quinoline derivatives for treating infections with helminths” (Bayer Animal Health GMBH, priority 2017, dated 2022).

Assays:
C. elegans Slo-1a = C. elegans Slo-1a (Caenorhabditis elegans, UniProt Q95V25)
Experimental: In Vitro Assay 1: C. elegans Slo-1a—Action at a Recombinant C. elegans Cell Line
Cells were cultured at 37° C. and 5% CO2 in MEMalpha with Gutamax I (Invitrogen, Nr.: 32571), supplemented with 10% (v/v) heat inactivated fetal bovine serum (Invitrogen, Nr.: 10500), G418 (1 mg/ml, Invitrogen, Nr.: 10131). Cells were detached using Accutase (Sigma, Nr.: A6964).
Membrane Potential Measurements
Laboratory compound testing was performed on 384-well microtiter plates (MTPs, Greiner, Nr.: 781092). 8000 cells/well were plated onto 384-well MTPs and cultured for 20 to 24 hours at 37° C. and 5% CO2. After removal of the cell culture medium, the cells were washed once with tyrode (150 mM NaCl, 0.3 mM KCl, 2 mM CaCl2, 1 mM MgCl2, 0.8 mM NaH2PO4, 5 mM Glucose, 28 mM Hepes, pH 7.4) and then loaded with the voltage sensitive dye of the Membrane Potential Assay Kit diluted in tyrode for 1 h at room temperature.
After starting the measurement of fluorescence using a FLIPR Tetra(Molecular Devices, Exc. 510-545 nm, Emm. 565-625 nm), test compounds were added followed by the addition of KCl tyrode (final assay concentration: 70 mM KCl, 2 mM CaCl2, 1 mM MgCl2, 0.8 mM NaH2PO4, 5 mM Glucose, 28 mM Hepes, pH 7.4, including the voltage sensitive dye). The measurement was completed after 7 minutes.

[1] = tested on: Dirofilaria immitis microfilariae; assay: In Vitro Assay 2: Dirofilaria immitis microfilariae (DIROIM L1) motility; details: 72 h
[2] = tested on: Dirofilaria immitis third-stage larvae; assay: In Vitro Assay 3: Dirofilaria immitis (DIROIM L4) larval motility; details: 72 h

C. elegans Slo-1a, sequence (Q95V25 whole entry): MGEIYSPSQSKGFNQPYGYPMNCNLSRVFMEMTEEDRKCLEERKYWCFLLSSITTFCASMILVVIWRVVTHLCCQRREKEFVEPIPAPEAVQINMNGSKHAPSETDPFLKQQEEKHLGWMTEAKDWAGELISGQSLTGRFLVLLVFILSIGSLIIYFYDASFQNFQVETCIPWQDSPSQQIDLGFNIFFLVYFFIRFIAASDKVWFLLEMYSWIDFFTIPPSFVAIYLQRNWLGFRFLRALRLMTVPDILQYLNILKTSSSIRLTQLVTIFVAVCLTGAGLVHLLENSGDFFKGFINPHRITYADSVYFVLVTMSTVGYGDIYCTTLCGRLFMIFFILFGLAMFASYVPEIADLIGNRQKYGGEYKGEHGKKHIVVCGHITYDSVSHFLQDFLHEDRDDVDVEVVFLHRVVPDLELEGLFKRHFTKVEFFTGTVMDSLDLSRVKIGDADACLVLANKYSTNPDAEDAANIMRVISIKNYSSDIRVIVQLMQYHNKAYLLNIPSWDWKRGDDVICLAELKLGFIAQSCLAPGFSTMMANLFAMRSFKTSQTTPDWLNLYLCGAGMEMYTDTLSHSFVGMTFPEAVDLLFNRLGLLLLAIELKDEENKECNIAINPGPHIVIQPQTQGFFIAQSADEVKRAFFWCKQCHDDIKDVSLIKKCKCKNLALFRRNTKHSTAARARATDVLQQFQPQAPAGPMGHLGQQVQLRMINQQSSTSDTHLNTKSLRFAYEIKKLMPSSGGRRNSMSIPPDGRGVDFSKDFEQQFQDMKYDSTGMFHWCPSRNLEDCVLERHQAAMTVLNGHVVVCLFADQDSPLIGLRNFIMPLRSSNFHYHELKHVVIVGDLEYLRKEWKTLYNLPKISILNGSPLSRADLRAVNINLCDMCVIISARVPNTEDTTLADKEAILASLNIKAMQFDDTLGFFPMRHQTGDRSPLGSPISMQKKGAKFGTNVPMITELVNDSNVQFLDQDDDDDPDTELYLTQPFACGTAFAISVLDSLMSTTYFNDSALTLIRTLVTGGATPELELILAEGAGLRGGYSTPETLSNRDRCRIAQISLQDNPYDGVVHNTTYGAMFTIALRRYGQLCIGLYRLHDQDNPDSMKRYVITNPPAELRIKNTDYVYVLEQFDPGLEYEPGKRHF

Compound | EC50 (C. elegans Slo-1a) | EC50 [1] | EC50 [2]
CC(C)c1c(C(=O)N[C@H]2CCOc3ccccc32)cnc2c(N3CCCCC3)c(F)ccc12 [Example 37, N-[(4S)-3,4-dihydro-2H-chromen-4-yl]-7-fluoro-8-(piperidin-1-yl)-4-(propan-2-yl)quinoline-3-carboxamide] | 3.16 to 31.6 nM | < 0.1 µg/mL | < 0.1 µg/mL
CC(C)c1c(C(=O)N[C@H]2CCOc3ccccc32)cnc2c(N3C[C@H](C)C[C@H](C)C3)c(F)ccc12 [Example 38, N-[(4S)-3,4-dihydro-2H-chromen-4-yl]-8-[(3R,5S)-3,5-dimethylpiperidin-1-yl]-7-fluoro-4-(propan-2-yl)quinoline-3-carboxamide] | < 3.16 nM | < 0.1 µg/mL | < 0.1 µg/mL
O=C(N[C@H]1CCc2ccccc21)c1cnc2c(N3CCCCC3)c(F)ccc2c1N1CCOCC1 [Example 43, N-[(1S)-2,3-dihydro-1H-inden-1-yl]-7-fluoro-4-(morpholin-4-yl)-8-(piperidin-1-yl)quinoline-3-carboxamide] | 3.16 to 31.6 nM | < 0.1 µg/mL | < 0.1 µg/mL
O=C(N[C@H]1CCc2ccccc21)c1cnc2c(N3CCC(F)(F)CC3)c(F)ccc2c1N1CCOCC1 [Example 40, 8-(4,4-difluoropiperidin-1-yl)-N-[(1S)-2,3-dihydro-1H-inden-1-yl]-7-fluoro-4-(morpholin-4-yl)quinoline-3-carboxamide] | 3.16 to 31.6 nM | < 0.1 µg/mL | < 0.1 µg/mL
C[C@@H]1C[C@H](C)CN(c2cccc3c(N(C)C)c(C(=O)N[C@H]4CCOc5ccccc54)cnc23)C1 [Example 34, N-[(4S)-3,4-dihydro-2H-chromen-4-yl]-4-(dimethylamino)-8-[(3R,5S)-3,5-dimethylpiperidin-1-yl]quinoline-3-carboxamide] | < 3.16 nM | < 1 µg/mL | < 0.1 µg/mL
CN(C)c1c(C(=O)N[C@H]2CCOc3ccccc32)cnc2c(C3=CCC(C)(C)CC3)cccc12 [Example 18, (S)—N-(Chroman-4-yl)-4-(dimethylamino)-8-(4,4-dimethylcyclohex-1-en-1-yl)quinoline-3-carboxamide] | 31.6 to 316 nM | < 10 µg/mL | < 1 µg/mL
C[C@@H]1C[C@H](C)CN(c2cccc3c(N4CCOCC4)c(C(=O)N[C@H]4CCOc5ccccc54)cnc23)C1 [Example 33, N-[(4S)-3,4-dihydro-2H-chromen-4-yl]-8-[(3R,5S)-3,5-dimethylpiperidin-1-yl]-4-(morpholin-4-yl)quinoline-3-carboxamide] | < 3.16 nM | < 0.1 µg/mL | < 0.1 µg/mL
CN(C)c1c(C(=O)N[C@H]2CCOc3ccccc32)cnc2c(C3=CCNCC3)cccc12 [Example 21, (S)—N-(Chroman-4-yl)-4-(dimethylamino)-8-(1,2,3,6-tetrahydropyridin-4-yl)quinoline-3-carboxamide] | 316 to 5010 nM | < 10 µg/mL | 
O=C(N[C@H]1CCc2ccccc21)c1cnc2c(N3CCCC3)c(F)ccc2c1N1CCOCC1 [Example 48, N-[(1S)-2,3-dihydro-1H-inden-1-yl]-7-fluoro-4-(morpholin-4-yl)-8-(pyrrolidin-1-yl)quinoline-3-carboxamide] | 3.16 to 31.6 nM | < 1 µg/mL | 
CC1CC(C)CN(c2c(F)ccc3c(N4CCOCC4)c(C(=O)N[C@H]4CCc5ccccc54)cnc23)C1 (stereo partly drawn) [Example 49, N-[(1S)-2,3-dihydro-1H-inden-1-yl]-8-(3,5-dimethylpiperidin-1-yl)-7-fluoro-4-(morpholin-4-yl)quinoline-3-carboxamide] | < 3.16 nM | < 0.1 µg/mL | < 0.1 µg/mL
CN(C)c1c(C(=O)N[C@H]2CCOc3ccccc32)cnc2c(N3CCCCC3)cccc12 [Example 30, N-[(4S)-3,4-dihydro-2H-chromen-4-yl]-4-(dimethylamino)-8-(piperidin-1-yl)quinoline-3-carboxamide] | 31.6 to 316 nM | < 1 µg/mL | 
CN(C)c1c(C(=O)N[C@H]2CCOc3ccccc32)cnc2c(C3CCC(C(F)(F)F)CC3)cccc12 (stereo partly drawn) [Example 17, N—((S)-Chroman-4-yl)-4-(dimethylamino)-8-(4-(trifluoromethyl)cyclohexyl)quinoline-3-carboxamide] | 3.16 to 31.6 nM | < 0.1 µg/mL | 
CC(C)CC(C)c1cccc2c(N3CCOCC3)c(C(=O)N[C@H]3CCOc4ccccc43)cnc12 (stereo partly drawn) [Example 22, N-[(4S)-3,4-dihydro-2H-chromen-4-yl]-8-(4-methylpentan-2-yl)-4-(morpholin-4-yl)quinoline-3-carboxamide] | 3.16 to 31.6 nM | < 0.1 µg/mL | < 0.1 µg/mL
CN(C)c1c(C(=O)N[C@H]2CCOc3ccccc32)cnc2c(C3CCCCCC3)cccc12 [Example 15, (S)—N-(Chroman-4-yl)-8-cycloheptyl-4-(dimethylamino)quinoline-3-carboxamide] | 3.16 to 31.6 nM | < 0.1 µg/mL | < 0.1 µg/mL
O=C(N[C@H]1CCOc2ccccc21)c1cnc2c(N3CCOCC3)cccc2c1N1CCOCC1 [Example 24, N-[(4S)-3,4-dihydro-2H-chromen-4-yl]-4,8-di(morpholin-4-yl)quinoline-3-carboxamide] | 316 to 5010 nM | < 10 µg/mL | 
CN(C)c1c(C(=O)N[C@H]2CCc3ccccc32)cnc2c(N3CCS(=O)(=O)CC3)c(F)ccc12 [Example 46, N-[(1S)-2,3-dihydro-1H-inden-1-yl]-4-(dimethylamino)-8-(1,1-dioxidothiomorpholin-4-yl)-7-fluoroquinoline-3-carboxamide] | 316 to 5010 nM | < 10 µg/mL | 
